Assay results reported in patent US20020146679A1, “Method for creating endothelial cell dysfunction in cell culture” (priority 2001, published 2002).
“And” between values parts separate entries of the source, which are not always exact repeats. Equal entries are not always repeated.

Test system: EA.hyb926 Endothelial Cells
Assay: Gene expression by Affymetrix gene chip profiling
Format: cell-based, human
Procedure: Control cells were treated with vehicle for the same times and RNA isolated as above. Transcript integrity was monitored using denaturing agarose gel electrophoresis in 1X MOPS. Biotinylated target RNA was prepared from 15 μg of total RNA using the Affymetrix protocol. Briefly, double-stranded cDNA was prepared from the RNA template using a modified oligo-dT primer containing a 5′ T7 RNA polymerase promoter sequence and the Superscript Choice System for cDNA Synthesis (Life Technologies Inc., Gaithersburg, Md.). Following phenol-chloroform extraction and ethanol precipitation, one-half of the cDNA reaction (0.5-1.0 μg) was used as template in an in vitro transcription reaction containing T7 RNA polymerase, a mixture of unlabeled ATP, CTP, GTP, and UTP, and biotin-11-CTP and biotin-16-UTP (BioArray High Yield Kit, ENZO, Inc.). The resulting biotinylated-cRNA “target” was purified on an affinity resin (RNeasy, Qiagen) and quantified using the convention that 1 O.D. Two-hundred sixty corresponds to 40 μg/mL of RNA. Typical yields ranged from 50 to 100 μg with transcript sizes between […] as determined by gel electrophoresis. Fifteen micrograms of biotinylated cRNA was randomly fragmented to an average size of 50 nucleotides by incubating at 94° C. for 35 minutes in 40 mM TRIS-acetate, pH 8.1, 100 mM potassium acetate, and 30 mM magnesium acetate. The fragmented cRNA was hybridized in a solution containing 100 mM MES, 1 M [Na^+], 20 mM EDTA, 0.01% TWEEN 20, 50 pM of Control Oligonucleotide B2 (Affymetrix, Inc.), 0.1 mg/mL of sonicated herring sperm DNA, and 0.5 mg/mL BSA for 16 hours at 45° C. on a Human 6800 Affymetrix GeneChip. Each hybridization included a mixture of four bacterial biotinylated-RNA transcripts (BioB, BioC, BioD, and cre) spiked at 1.5, 5, 25, and 100 pM, respectively. The hybridization reactions were processed and scanned according to the standard Affymetrix protocols.
EA cells incubated with 10 ng/mL TNFα(with 5% FBS) for 6 hours (short-term) or 6 days (chronic exposure) were evaluated for identification of cytokine-responsive endothelial genes. […] In addition, ecNOS expression was reduced 4-fold from control, consistent with the western and northern blot data (FIGS. 6 and 7).

In the case of TNFα, the “ecNOS expression reduced from control” value (6 day TNFα treatment, 10 ng/mL with 5% FBS) is reported as 4 fold, the “Short- (6 hr Tx) Fold Increase: MCP-1” value (TNFα 6 hr, accession HG4069) is reported as 4.5 Fold and the “Short- (6 hr Tx) Fold Increase: Type IV collagenase” value (TNFα 6 hr, accession J05070) is reported as 4.7 Fold. The “Short- (6 hr Tx) Fold Increase: GM-CSF” value (TNFα 6 hr, accession M13207) was 23.0 Fold, the “Short- (6 hr Tx) Fold Increase: Vitronectin” value (TNFα 6 hr, accession M14648) was 4.3 Fold and the “Short- (6 hr Tx) Fold Increase: RANTES” value (TNFα 6 hr, accession M21121) was 39.5 Fold. For the same substance, the “Short- (6 hr Tx) Fold Increase: Interleukin-8” value (TNFα 6 hr, accession M28130) was 4.6 Fold, the “Short- (6 hr Tx) Fold Increase: TNF-Inducible, CD44 adhesion receptor” value (TNFα 6 hr, accession M31165) was 2.7 Fold and the “Short- (6 hr Tx) Fold Increase: NFkB1 (p105)” value (TNFα 6 hr, accession M58603) was 4.4 Fold. For the same substance, the “Short- (6 hr Tx) Fold Increase: A20: TNFα-inducible transcription factor” value (TNFα 6 hr, accession M59465) was 6.5 Fold, the “Short- (6 hr Tx) Fold Increase: VCAM-1” value (TNFα 6 hr, accession M60335) was 32 Fold and 32.3 Fold and the “Short- (6 hr Tx) Fold Increase: ecNOS (NOS 3)” value (TNFα 6 hr, accession M93718, nc = no change from vehicle treated) was “did not affect”. For the same substance, the “Short- (6 hr Tx) Fold Increase: HIF-1 α” value (TNFα 6 hr, accession U22431) was 4.6 Fold, the “Short- (6 hr Tx) Fold Increase: VEGF C” value (TNFα 6 hr, accession U43142) was 7.8 Fold and the “Short- (6 hr Tx) Fold Increase: Hiapl” value (TNFα 6 hr, accession U45878) was 17.7 Fold. The “Short- (6 hr Tx) Fold Increase: Prointerleukin-1β” value (TNFα 6 hr, accession X04500) was 42.2 Fold, the “Short- (6 hr Tx) Fold Increase: Manganese superoxide dismutase” value (TNFα 6 hr, accession X07834) was 13.1 Fold and the “Short- (6 hr Tx) Fold Increase: Macrophage inflammatory protein2-β” value (TNFα 6 hr, accession X53800) was 11.2 Fold. For the same substance, the “Short- (6 hr Tx) Fold Increase: Integrin, αV subunit (vitronectin receptor)” value (TNFα 6 hr, accession X68742) was 4.3 Fold, the “Short- (6 hr Tx) Fold Increase: MT-MMP” value (TNFα 6 hr, accession X83535) was 4.3 Fold and the “Chronic- (6 day Tx) Fold Increase: MCP-1” value (TNFα 6 day, accession HG4069) was 8.7 Fold. For the same substance, the “Chronic- (6 day Tx) Fold Increase: Type IV collagenase” value (TNFα 6 day, accession J05070) was 27.2 Fold, the “Chronic- (6 day Tx) Fold Increase: Von Willebrand factor” value (TNFα 6 day, accession M10321) was −8.3 Fold and the “Chronic- (6 day Tx) Fold Increase: GM-CSF” value (TNFα 6 day, accession M13207) was 37.1 Fold. The “Chronic- (6 day Tx) Fold Increase: Vitronectin” value (TNFα 6 day, accession M14648) was 6.8 Fold, the “Chronic- (6 day Tx) Fold Increase: RANTES” value (TNFα 6 day, accession M21121) was 62.8 Fold and the “Chronic- (6 day Tx) Fold Increase: Interleukin-8” value (TNFα 6 day, accession M28130) was 32.6 Fold. The “Chronic- (6 day Tx) Fold Increase: TNF-Inducible, CD44 adhesion receptor” value (TNFα 6 day, accession M31165) was 37.1 Fold, the “Chronic- (6 day Tx) Fold Increase: NFkB1 (p105)” value (TNFα 6 day, accession M58603) was 2.9 Fold and the “Chronic- (6 day Tx) Fold Increase: A20: TNFα-inducible transcription factor” value (TNFα 6 day, accession M59465) was 6.6 Fold. The “Chronic- (6 day Tx) Fold Increase: ecNOS (NOS 3)” value (TNFα 6 day, accession M93718) was −3.9 Fold, the “Chronic- (6 day Tx) Fold Increase: TRAIL” value (TNFα 6 day, accession U37518) was 4.8 Fold and the “Chronic- (6 day Tx) Fold Increase: VEGF C” value (TNFα 6 day, accession U43142) was 27.1 Fold. The “Chronic- (6 day Tx) Fold Increase: Hiapl” value (TNFα 6 day, accession U45878) was 6.9 Fold, the “Chronic- (6 day Tx) Fold Increase: Prointerleukin-1β” value (TNFα 6 day, accession X04500) was 213.1 Fold and the “Chronic- (6 day Tx) Fold Increase: Manganese superoxide dismutase” value (TNFα 6 day, accession X07834) was 63.4 Fold. For the same substance, the “Chronic- (6 day Tx) Fold Increase: Macrophage inflammatory protein2-β” value (TNFα 6 day, accession X53800) was 40.6 Fold, the “Chronic- (6 day Tx) Fold Increase: Integrin, αV subunit (vitronectin receptor)” value (TNFα 6 day, accession X68742) was 6.8 Fold and the “Chronic- (6 day Tx) Fold Increase: MCP-3” value (TNFα 6 day, accession X72308) was 19.9 Fold. For the same substance, the “Chronic- (6 day Tx) Fold Increase: CD95 (Fas)” value (TNFα 6 day, accession X83492) was 4.3 Fold, the “Chronic- (6 day Tx) Fold Increase: MT-MMP” value (TNFα 6 day, accession X83535) was 26.1 Fold and the “Chronic- (6 day Tx) Fold Increase: MCP-2” value (TNFα 6 day, accession X99886) was 131.7 Fold. For the same substance, the “increased expression of protective genes (superoxide dismutase, A-20, hiap-1, TRAIL, CD95)” value (TNFα exposure to EA cells) was 4.3-17.7 fold and the “increases in expression of proinflammatory (proatherogenic) genes” value (chronic TNFα exposure (6 days)) was 6.8-75.8 fold.
